Assay results: ChEMBL document CHEMBL5034010, “Novel Cephalosporin Conjugates Display Potent and Selective Inhibition of Imipenemase-Type Metallo-β-Lactamases” (J Med Chem, 2021)
≈ marks a conversion by molar mass, not a printed value. Calls of active or inactive are those of the source. The calls are words filed in the database; no cut-off is given here.

Experiments:
Escherichia coli [1] = assay: Inhibition of Metallo-beta-lactamase NDM-1 in Escherichia coli clinical isolate assessed as fold reduction in meropenem MIC at 64 ug/ml; conditions: dose 64.0 µg/ml
Klebsiella pneumoniae [2] = assay: Substrate activity at Klebsiella pneumoniae beta-lactamase IMP-28 assessed as compound hydrolysis by measuring Km by Michaelis-Menten analysis
Klebsiella pneumoniae [3] = assay: Inhibition of Metallo-beta-lactamase IMP-28 in Klebsiella pneumoniae clinical isolate assessed as MIC for meropenem antibacterial activity at 32 ug/ml (reference value: 4 ug/ml); conditions: dose 32.0 µg/ml
Enterobacter cloacae [4] = assay: Inhibition of Metallo-beta-lactamase IMP-1 in Enterobacter cloacae clinical isolate assessed as MIC for meropenem antibacterial activity at 128 ug/ml (Rvb =16 ug/ml); conditions: dose 128.0 µg/ml
[5] = Stability of the compound in Muller hinton broth assessed compound remaining measured after 15 hrs by HPLC analysis; type: physicochemical; conditions: Mueller Hinton broth, read-out: Stability
Enterobacter cloacae [6] = assay: Inhibition of Metallo-beta-lactamase IMP-1 in Enterobacter cloacae clinical isolate assessed as fold reduction in meropenem MIC at 32 ug/ml; conditions: dose 32.0 µg/ml
Enterobacter cloacae [7] = assay: Inhibition of Metallo-beta-lactamase IMP-1 in Enterobacter cloacae clinical isolate assessed as MIC for meropenem antibacterial activity at 32 ug/ml (Rvb =16 ug/ml); conditions: dose 32.0 µg/ml
Klebsiella pneumoniae [8] = assay: Inhibition of Metallo-beta-lactamase IMP-28 in Klebsiella pneumoniae clinical isolate assessed as fold reduction in meropenem MIC at 128 ug/ml; conditions: dose 128.0 µg/ml
Klebsiella pneumoniae [9] = assay: Substrate activity at Klebsiella pneumoniae beta-lactamase IMP-28 assessed as compound hydrolysis by measuring Kcat/Km by Michaelis-Menten analysis
Klebsiella pneumoniae [10] = assay: Antibacterial activity against beta-lactamase IMP-28 producing Klebsiella pneumoniae clinical isolate measured upto 128 ug/ml; type: functional, organism-based
Klebsiella pneumoniae [11] = assay: Inhibition of Metallo-beta-lactamase IMP-28 in Klebsiella pneumoniae clinical isolate assessed as fold reduction in meropenem MIC at 32 ug/ml; conditions: dose 32.0 µg/ml
Escherichia coli [12] = assay: Inhibition of Metallo-beta-lactamase VIM-2 in Escherichia coli clinical isolate assessed as fold reduction in meropenem MIC at 64 ug/ml; conditions: dose 64.0 µg/ml
[13] = Inhibition of Escherichia coli beta-lactamase VIM-2 using nitrocefin chromogenic substrate measured after 15 to 60 min at 25 degC by microplate reader
Escherichia coli [14] = assay: Inhibition of Metallo-beta-lactamase NDM-1 in Escherichia coli clinical isolate assessed as MIC for meropenem antibacterial activity at 64 ug/ml (reference value: 64 ug/ml); conditions: dose 64.0 µg/ml
Escherichia coli [15] = assay: Inhibition of Metallo-beta-lactamase VIM-2 in Escherichia coli clinical isolate assessed as fold reduction in meropenem MIC at 32 ug/ml; conditions: dose 32.0 µg/ml
Escherichia coli [16] = assay: Inhibition of Metallo-beta-lactamase NDM-1 in Escherichia coli clinical isolate assessed as fold reduction in meropenem MIC at 32 ug/ml; conditions: dose 32.0 µg/ml
Escherichia coli [17] = assay: Inhibition of Metallo-beta-lactamase NDM-1 in Escherichia coli clinical isolate assessed as MIC for meropenem antibacterial activity at 128 ug/ml (reference value: 64 ug/ml); conditions: dose 128.0 µg/ml
Escherichia coli [18] = assay: Antibacterial activity against beta-lactamase VIM2 producing Escherichia coli clinical isolate measured upto 128 ug/ml; type: functional, organism-based
Klebsiella pneumoniae [19] = assay: Inhibition of Metallo-beta-lactamase IMP-28 in Klebsiella pneumoniae clinical isolate assessed as MIC for meropenem antibacterial activity at 128 ug/ml (reference value: 4 ug/ml); conditions: dose 128.0 µg/ml
Escherichia coli [20] = assay: Inhibition of Metallo-beta-lactamase NDM-1 in Escherichia coli clinical isolate assessed as MIC for meropenem antibacterial activity at 32 ug/ml (reference value: 64 ug/ml); conditions: dose 32.0 µg/ml
Escherichia coli [21] = assay: Inhibition of Metallo-beta-lactamase NDM-1 in Escherichia coli clinical isolate assessed as fold reduction in meropenem MIC at 128 ug/ml; conditions: dose 128.0 µg/ml
Enterobacter cloacae [22] = assay: Inhibition of Metallo-beta-lactamase IMP-1 in Enterobacter cloacae clinical isolate assessed as MIC for meropenem antibacterial activity at 64 ug/ml (Rvb =16 ug/ml); conditions: dose 64.0 µg/ml
Escherichia coli [23] = assay: Antibacterial activity against beta-lactamase NDM1 producing Escherichia coli clinical isolate measured upto 128 ug/ml; type: functional, organism-based
Enterobacter cloacae [24] = assay: Inhibition of Metallo-beta-lactamase IMP-1 in Enterobacter cloacae clinical isolate assessed as fold reduction in meropenem MIC at 64 ug/ml; conditions: dose 64.0 µg/ml
Enterobacter cloacae [25] = assay: Inhibition of Metallo-beta-lactamase IMP-1 in Enterobacter cloacae clinical isolate assessed as fold reduction in meropenem MIC at 128 ug/ml; conditions: dose 128.0 µg/ml
Enterobacter cloacae [26] = assay: Antibacterial activity against beta-lactamase IMP1 producing Enterobacter cloacae clinical isolate measured upto 128 ug/ml; type: functional, organism-based
Klebsiella pneumoniae [27] = assay: Substrate activity at Klebsiella pneumoniae beta-lactamase IMP-28 assessed as compound hydrolysis by measuring Kcat by Michaelis-Menten analysis
[28] = Inhibition of Enterobacter cloacae IMP-1 using nitrocefin chromogenic substrate measured after 15 to 60 min at 25 degC by microplate reader
[29] = Inhibition of Klebsiella pneumoniae beta-lactamase IMP-28 using nitrocefin chromogenic substrate measured after 15 to 60 min at 25 degC by microplate reader
Escherichia coli [30] = assay: Inhibition of Metallo-beta-lactamase VIM-2 in Escherichia coli clinical isolate assessed as MIC for meropenem antibacterial activity at 64 ug/ml (reference value: 8 ug/ml); conditions: dose 64.0 µg/ml
Klebsiella pneumoniae [31] = assay: Inhibition of Metallo-beta-lactamase IMP-28 in Klebsiella pneumoniae clinical isolate assessed as fold reduction in meropenem MIC at 64 ug/ml; conditions: dose 64.0 µg/ml
[32] = Inhibition of Escherichia coli beta-lactamase NDM-1 using nitrocefin chromogenic substrate measured after 15 to 60 min at 25 degC by microplate reader
Klebsiella pneumoniae [33] = assay: Inhibition of Metallo-beta-lactamase IMP-28 in Klebsiella pneumoniae clinical isolate assessed as MIC for meropenem antibacterial activity at 64 ug/ml (reference value: 4 ug/ml); conditions: dose 64.0 µg/ml
Escherichia coli [34] = assay: Inhibition of Metallo-beta-lactamase VIM-2 in Escherichia coli clinical isolate assessed as MIC for meropenem antibacterial activity at 128 ug/ml (reference value: 8 ug/ml); conditions: dose 128.0 µg/ml
Escherichia coli [35] = assay: Inhibition of Metallo-beta-lactamase VIM-2 in Escherichia coli clinical isolate assessed as fold reduction in meropenem MIC at 128 ug/ml; conditions: dose 128.0 µg/ml
Escherichia coli [36] = assay: Inhibition of Metallo-beta-lactamase VIM-2 in Escherichia coli clinical isolate assessed as MIC for meropenem antibacterial activity at 32 ug/ml (reference value: 8 ug/ml); conditions: dose 32.0 µg/ml

In the case of `O=C(Cc1ccccc1)N[C@@H]1C(=O)N2C(C(=O)O)=C(CS[C@@H](Cc3ccccc3)C(=O)O)CS[C@H]12`, the fold change (FC) (Escherichia coli [1]) is reported as 2, the Km (Klebsiella pneumoniae [2]) is reported as 175 µM and the MIC (Klebsiella pneumoniae [3]) is reported as 1 µg/mL (≈ 1.95 µM). For the same compound, the MIC (Enterobacter cloacae [4]) was 4 µg/mL (≈ 7.8 µM), the remaining at 15 h [5] was > 95% and the fold change (FC) (Enterobacter cloacae [6]) was 2. It also gave an MIC (Enterobacter cloacae [7]) of 8 µg/mL (≈ 15.6 µM), a fold change (FC) (Klebsiella pneumoniae [8]) of 16 and a kcat/Km (Klebsiella pneumoniae [9]) of 234000 M⁻¹ s⁻¹. The Activity (Klebsiella pneumoniae [10]) was “inactive”, the fold change (FC) (Klebsiella pneumoniae [11]) was 4 and the fold change (FC) (Escherichia coli [12]) was 1. For the same compound, the IC50 [13] was 19 µM, the MIC (Escherichia coli [14]) was 32 µg/mL (≈ 62.4 µM) and the fold change (FC) (Escherichia coli [15]) was 1. For the same compound, the fold change (FC) (Escherichia coli [16]) was 2, the MIC (Escherichia coli [17]) was 16 µg/mL (≈ 31.2 µM) and the Activity (Escherichia coli [18]) was “inactive”. It also gave an MIC (Klebsiella pneumoniae [19]) of 0.25 µg/mL (≈ 0.488 µM), an MIC (Escherichia coli [20]) of 32 µg/mL (≈ 62.4 µM) and a fold change (FC) (Escherichia coli [21]) of 4. The MIC (Enterobacter cloacae [22]) was 8 µg/mL (≈ 15.6 µM), the Activity (Escherichia coli [23]) was “inactive” and the fold change (FC) (Enterobacter cloacae [24]) was 2. For the same compound, the fold change (FC) (Enterobacter cloacae [25]) was 4, the Activity (Enterobacter cloacae [26]) was “inactive” and the kcat (Klebsiella pneumoniae [27]) was 41 s⁻¹. The IC50 [28] was 48 µM, the IC50 [29] was 30 µM and the MIC (Escherichia coli [30]) was 8 µg/mL (≈ 15.6 µM). For the same compound, the fold change (FC) (Klebsiella pneumoniae [31]) was 8, the IC50 [32] was 51 µM and the MIC (Klebsiella pneumoniae [33]) was 0.5 µg/mL (≈ 0.975 µM). It also gave an MIC (Escherichia coli [34]) of 4 µg/mL (≈ 7.8 µM), a fold change (FC) (Escherichia coli [35]) of 2 and an MIC (Escherichia coli [36]) of 8 µg/mL (≈ 15.6 µM).

Compound `O=C(Cc1ccccc1)N[C@@H]1C(=O)N2C(C(=O)O)=C(CSCCc3ccccc3)CS[C@H]12` has a fold change (FC) (Escherichia coli [1]) of 4, a Km (Klebsiella pneumoniae [2]) of 83.3 µM and an MIC (Klebsiella pneumoniae [3]) of 0.5 µg/mL (≈ 1.07 µM). It also gave an MIC (Enterobacter cloacae [4]) of 8 µg/mL (≈ 17.1 µM), a fold change (FC) (Enterobacter cloacae [6]) of 2 and an MIC (Enterobacter cloacae [7]) of 8 µg/mL (≈ 17.1 µM). The fold change (FC) (Klebsiella pneumoniae [8]) was 16, the kcat/Km (Klebsiella pneumoniae [9]) was 73000 M⁻¹ s⁻¹ and the Activity (Klebsiella pneumoniae [10]) was “inactive”. The fold change (FC) (Klebsiella pneumoniae [11]) was 8, the fold change (FC) (Escherichia coli [12]) was 2 and the IC50 [13] was 49 µM. The MIC (Escherichia coli [14]) was 16 µg/mL (≈ 34.1 µM), the fold change (FC) (Escherichia coli [15]) was 1 and the fold change (FC) (Escherichia coli [16]) was 2. The MIC (Escherichia coli [17]) was 16 µg/mL (≈ 34.1 µM), the Activity (Escherichia coli [18]) was “inactive” and the MIC (Klebsiella pneumoniae [19]) was 0.25 µg/mL (≈ 0.534 µM). The MIC (Escherichia coli [20]) was 32 µg/mL (≈ 68.3 µM), the fold change (FC) (Escherichia coli [21]) was 4 and the MIC (Enterobacter cloacae [22]) was 8 µg/mL (≈ 17.1 µM). The Activity (Escherichia coli [23]) was “inactive”, the fold change (FC) (Enterobacter cloacae [24]) was 2 and the fold change (FC) (Enterobacter cloacae [25]) was 2. The Activity (Enterobacter cloacae [26]) was “inactive”, the kcat (Klebsiella pneumoniae [27]) was 6.12 s⁻¹ and the IC50 [28] was 2.2 µM. For the same compound, the IC50 [29] was 4.3 µM, the MIC (Escherichia coli [30]) was 4 µg/mL (≈ 8.54 µM) and the fold change (FC) (Klebsiella pneumoniae [31]) was 16. The MIC (Klebsiella pneumoniae [33]) was 0.25 µg/mL (≈ 0.534 µM), the MIC (Escherichia coli [34]) was 4 µg/mL (≈ 8.54 µM) and the fold change (FC) (Escherichia coli [35]) was 2. It also gave an MIC (Escherichia coli [36]) of 8 µg/mL (≈ 17.1 µM).
